# Tests used:
# chiens [1] = assay: Coronary balloon angioplasty occlusion (15 min) and reperfusion in anaesthetised dogs, first series; assay type: in vivo
# Experimental: (§1) 1 - On a réalisé des essais comparatifs chez des chiens auxquels on a administré par voie intraveineuse en 15 minutes : • soit du buflomédil (chlorhydrate) à la dose de 10 mg/kg; • soit un placebo.
# Le protocole opératoire était le suivant :
# (§2) les chiens ont reçu une prémédication consistant en 1,0 mg par kg de sulfate de morphine après une nuit de diète ainsi que 325 mg d'aspirine par voie orale.
# (§3) Les chiens ont été anesthésiés avec 12,5 mg/kg de thiopental et 72 mg/kg de chloralose par voie intraveineuse. On met en place un cathéter au niveau de l'artère fémorale pour la mesure de la pression artérielle et une canule sur la veine fémorale pour l'administration du produit à tester. L'artère carotide gauche reçoit une canule pour la mise en place du cathéter d'angioplastie, tandis que l'on met en place un cathéter au niveau du ventricule gauche via l'artère fémorale contralatérale.
# Les animaux sont alors héparinisés avec 500 unités U.I. par kg par voie I.V. On procède alors à l'administration du produit à tester ou du placebo à raison, pour le buflomédil, de 10 mg par mn. On administre ensuite de la lidocaïne par voie I.V. à raison de 1 mg/kg sous forme de bolus, puis par perfusion à raison de 1 mg par mn. […]
# chiens [2] = assay: Coronary balloon occlusion (15 min) with follow-up of reperfusion in dogs, second series; assay type: in vivo; conditions: 10 mg/kg i.v.
# Experimental: as §1, §2, §3
# Les animaux sont alors héparinisés avec 500 unités U.I. par kg par voie I.V. On procède alors à l'administration du produit à tester ou du placebo à raison, pour le buflomédil, de 10 mg par mn. On administre ensuite de la lidocaïne par voie I.V. à raison de 1 mg/kg sous forme de bolus, puis par perfusion à raison de 1 mg par mn.
# 30 mn après la fin de la perfusion, on met en place un ballonnet d'angioplastie de 2,5-3,5 mm choisi en fonction de la taille des artères coronaires dans l'artère coronaire descendante antérieure gauche. Le ballon a été gonflé à une pression de 4.10⁵ Pa pendant 15 mn.
# 2 - Dans une deuxième série d'essais comparatifs, on a utilisé le même mode opératoire et les mêmes produits (buflomédil chlorhydrate à la dose de 10 mg/kg d'une part et placebo d'autre part) et on a suivi la reperfusion après 15 minutes d'occlusion avec un ballonnet.
# [3] = at the end of the occlusion, versus placebo
smiles,measurement,setting,value
"COc1cc(OC)c(C(=O)CCCN2CCCC2)c(OC)c1 [buflomédil, 4-(1-pyrrolidinyl)-1-(2,4,6-triméthoxyphényl)-1-butanone]",flux sanguins tissulaires au niveau du myocarde,"chiens [1]; 10 mg/kg i.v., measured during ischaemia in the ischaemic regions, versus placebo (Figure)",plus élevés
same,fibrillation ventriculaire lors de la reperfusion,"chiens [1]; buflomédil (chlorhydrate) 10 mg/kg i.v. over 15 min, 15 min balloon occlusion, placebo: 4 cas sur 10",n'a pas observé de fibrillation ventriculaire
same,fraction d'éjection,"chiens [2]; 30 minutes after reperfusion, placebo 69 %",89 % de la valeur normale du groupe
same,fraction d'éjection,"chiens [2]; 60 minutes after reperfusion, placebo 74 %",95%
same,zone de dysfonctionnement,"chiens [2]; after reperfusion, versus placebo",diminution
same,fraction d'éjection,chiens [2]; [3],n'a pas observé à la fin de l'occlusion de différence
same,perfusion sanguine transmurale,chiens [2]; [3],n'a pas observé à la fin de l'occlusion de différence
same,flux pendant la reperfusion,"chiens [2]; during reperfusion, versus placebo",flux accru
